Measurements published in patent US12262716B2, “Herbicidal mixtures comprising L-glufosinate and their use in soybean cultures” (BASF SE, priority 2017, dated 2025).

How the values were obtained:
Assay type in all cases: in vivo
Cyperus iria = test: Greenhouse pot test, post emergence treatment, herbicidal activity against CYPIR; settings: scale 0 to 100
[1] = tested on: Erigeron Canadensis, Conyza canadensis; test: Greenhouse pot test, post emergence treatment, herbicidal activity against ERICA; settings: L-Glufosinate 75 g ai/ha, scale 0 to 100
Abutilon theophrasti = test: Greenhouse pot test, post emergence treatment, herbicidal activity against ABUTH; settings: scale 0 to 100
Source text: (§1) Synergism can be described as an interaction where the combined effect of two or more compounds is greater than the sum of the individual effects of each of the compounds. The presence of a synergistic effect in terms of percent control, between two mixing partners (X and Y) can be calculated using the Colby equation (Colby, S. R., 1967, Calculating Synergistic and Antagonistic Responses in Herbicide Combinations, Weeds, 15, 21-22):
(§2) When the observed combined control effect is greater than the expected (calculated) combined control effect (E), then the combined effect is synergistic.
(§3) However, the weed control afforded by the compounds, mixtures or compositions is not limited to these species. The analysis of synergism or antagonism between the mixtures or compositions was determined using Colby's equation.
(§4) The culture containers used were plastic flowerpots containing loamy sand with approximately 3.0% of humus as the substrate. The seeds of the test plants were sown separately for each species and/or resistant biotype. For the pre-emergence treatment, the active ingredients, which had been suspended or emulsified in water, were applied directly after sowing by means of finely distributing nozzles. The containers were irrigated gently to promote germination and growth and subsequently covered with transparent plastic hoods until the plants had rooted. This cover caused uniform germination of the test plants, unless this had been impaired by the active ingredients. For the post-emergence treatment, the test plants were first grown to a height of 3 to 15 cm, depending on the plant habit, and only then treated with the active ingredients which had been suspended or emulsified in water. For this purpose, the test plants were either sown directly and grown in the same containers, or they were first grown separately as seedlings and transplanted into the test containers a few days prior to treatment. Depending on the species, the plants were kept at 10-25 ° C.or 20-35° C., respectively. The test period extended to 20 days after treatment. During this time, the plants were tended, and their response to the individual treatments was evaluated. The evaluation was carried out by using a scale from 0 to 100. 100 means no emergence of the plants or complete destruction of at least the above-ground parts, and 0 means no damage, or normal course of growth. Data shown are the mean of two replications.
• L-Glufosinate: 5% EC formulation • Saflufenacil: 342 g/l SC formulation • Compound II-89: 5% EC formulation (Compound II-89: ethyl [3-[2-chloro-4-fluoro-5-(1-methyl-6-trifluoromethyl-2,4-dioxo-1,2,3,4-tetrahydropyrimidin-3-yl)phenoxy]-2-pyridyloxy]acetate) • Trifludimoxazin: 500 g/l SC formulation • Pyroxasulfone: 85% WG formulation • Pethoxamid: 5% EC formulation • Sulfentrazone: 480 g/l SC formulation Weeds in the Study: […]

Avena fatua = test: Greenhouse pot test, post emergence treatment, herbicidal activity against AVEFA; settings: scale 0 to 100
Source text: as §1, §2, §3
as §4, with “replications. […]” for “replications.”

Echinochloa crus-galli = test: Greenhouse pot test, post emergence treatment, herbicidal activity against ECHCG; settings: scale 0 to 100
Source text: as §1, §2, §3
as §4, with “Depending on the species, the plants were kept at 10-25 ° C.or 20-35° C., respectively. The test period extended to 20 days after treatment.” left out, “The evaluation was carried out by using a scale from 0 to 100. 100 means no emergence of the plants or complete destruction of at least the above-ground parts, and 0 means no damage, or normal course of growth. Data shown are the mean of two replications.” left out

## CCOC(=O)COc1ncccc1Oc1cc(-n2c(=O)cc(C(F)(F)F)n(C)c2=O)c(F)cc1Cl [Compound II-89, ethyl [3-[2-chloro-4-fluoro-5-(1-methyl-6-trifluoromethyl-2,4-dioxo-1,2,3,4-tetrahydropyrimidin-3-yl)phenoxy]-2-pyridyloxy]acetate]
Cyperus iria; Compound II-89 0.25 g ai/ha
  Herbicidal activity against CYPIR, Found: 0

## CP(=O)(O)CC[C@H](N)C(=O)O [L-Glufosinate, (2S)-2-amino-4-[hydroxy(methyl)phosphinoyl]butyric acid]
[1]
  Herbicidal activity against ERICA, Found: 90
Cyperus iria; L-Glufosinate 200 g ai/ha
  Herbicidal activity against CYPIR, Found: 0
Abutilon theophrasti; L-Glufosinate 75 g ai/ha
  Herbicidal activity against ABUTH, Found: 0
Abutilon theophrasti; L-Glufosinate 150 g ai/ha
  Herbicidal activity against ABUTH, Found: 55
Abutilon theophrasti; L-Glufosinate 200 g ai/ha
  Herbicidal activity against ABUTH, Found: 65
Avena fatua; L-Glufosinate 75 g ai/ha
  Herbicidal activity against AVEFA, Found: 0
Avena fatua; L-Glufosinate 150 g ai/ha
  Herbicidal activity against AVEFA, Found: 0
Echinochloa crus-galli; L-Glufosinate 200 g ai/ha
  Herbicidal activity against ECHCG, Found: 0
Echinochloa crus-galli; L-Glufosinate 400 g ai/ha
  Herbicidal activity against ECHCG, Found: 65

## CCOCCN(C(=O)CCl)C(=C(C)C)c1ccccc1 [Pethoxamid, pethoxamid]
Abutilon theophrasti; Pethoxamid 50 g ai/ha
  Herbicidal activity against ABUTH, Found: 0
Abutilon theophrasti; Pethoxamid 100 g ai/ha
  Herbicidal activity against ABUTH, Found: 0
Avena fatua; Pethoxamid 50 g ai/ha
  Herbicidal activity against AVEFA, Found: 0
Avena fatua; Pethoxamid 100 g ai/ha
  Herbicidal activity against AVEFA, Found: 0

## C#CCN1C(=O)C(F)(F)Oc2cc(F)c(-n3c(=O)n(C)c(=S)n(C)c3=O)cc21 [Trifludimoxazin, trifludimoxazin]
Echinochloa crus-galli; Trifludimoxazin 0.25 g ai/ha
  Herbicidal activity against ECHCG, Found: 10
